# Measurements: patent US9428452B2, “Compounds” (Glaxo Group Limited, priority 2012, dated 2016)
# Marks after values point to notes of the source that are not given here.
# Experiments:
# IL-22 mRNA expression = experiment: Ex-vivo human skin model, IL-22 mRNA expression; format: cell-based; conditions: for Percentage of inhibition of IL-22 mRNA expression: Th17 cytokine cocktail 24 h, RT-PCR
# Protocol: (§1) Fresh ex vivo human skin from healthy bariatric patients, that underwent abdominoplasty skin removal, was de-fatted and dermatomed at 750 μm. Dermatomed skin was incubated twice for 5-10 minutes at room temperature in PBS containing a antibiotic/antimycotic solution: Fungizone (Invitrogen #15290018), PSG (Fisher #BW17718R) and Gentamicin (Invitrogen #15750060). Skin was treated aseptically from this point on. Individual skin samples were obtained by 10 mm punch biopsy and placed in a 0.4 μm PCF membrane transwell (Millicell #PIHP01250) containing 30 μl of a 64% bovine collagen solution. After a 30 minute incubation at 37° C., which allows the collagen solution time to set, skin samples on transwells were transferred to 6-well plates (1 sample per well) and the lower chamber filled with 1 ml complete media (Cornification Media)+hydrocortisone (final concentration of 0.4 μg/ml) with or without test compounds at 10 μM (day −3) and allowed to rest overnight (16-18 h) at 37° C. Next, media was aspirated from the lower chamber, replaced with 1 ml complete media without hydrocortisone and incubated at 37° C. for 1 h. This constituted a ‘wash’ step. Following the hydrocortisone washout, media was again aspirated from the lower chamber and replaced with 1.0 ml complete media without hydrocortisone with or without GSK compounds at 10 μM (day −2). Cultures were incubated at 37° C. in a humidified chamber and media was refreshed one more day (day-1). The following day (day-0), cultures were stimulated for 24 h with a freshly made Th17 cytokine cocktail (CD3, 1 μg/ml, CD28, 2 μg/ml, IL-1b, 10 ng/ml, IL-6, 5 ng/ml, TGFb, 1 ng/ml, IL-21, 10 ng/ml, anti-IL-4, 1 μg/ml and anti-INFg, 1 μg/ml) with or without test compounds at 10 μM. Upon harvest (day +1), skin samples were minced with a razor blade and transferred to 1.5 ml RNAse-free tubes with 1 ml RNAlater solution until later analysis by RT-PCR (stored at −80 C).
# (§2) Total RNA was isolated from about 30-40 mg of tissue using Qiagen's (Cat #74106) Mini RNA Isolation kit. Briefly, tissue was homogenized in the Precellys-24 machine using 300 μL of RLT buffer supplemented with 1% 2-Beta-Mercapto-Ethanol at 6300 rpm for 30 seconds for 6 cycles with a 2-minute ice break. 600 μL of water containing Proteinase K was added to the homogenate and digested at 55 C for 15 minutes. Digested tissue was spun down for 3 minutes at 10,000×g and the supernantant was used for RNA isolation using Qiagen's RNeasy mini columns according to manufacturer's protocol. 100 ng of RNA was used as template in a 20 μL PCR volume using Applied Biosciences RNA-to-CT 1 Step kit (AB Catalog #4392938) as well as the specific TaqMan probe for each gene to be quantified. Life Technologies FAM labeled Probes Catalog Numbers are as follows: ACTb=Hs01060665_g1, IL-17A=Hs00174383_m1, IL-17F=Hs00369400_m1, IL-22=Hs01574154_m1. All probes used (except for ACTb) expand an Exon. Applied Biosciences' Master Mix has a ROX dye internal control. OneStepPlus PCR machine was used for both the RT step and the 40 amplification cycles. RNA levels of gene of interest's relative expression were calculated using the Delta Delta CT formula.
# (§3) First delta: Normalized to ACTb gene expression
# (§4) Second delta: Normalized to sample 13 (Day 0+DMSO) for the gene of interest.
# [1] = target: T1, Human RORγ Ligand Binding Domain (RORγ-LBD) (Homo sapiens, UniProt P51449); experiment: Dual Fluorescence Energy Transfer (FRET) assay: co-activator SRC1(2) peptide interaction with RORγ-LBD; format: biochemical; conditions: RORγ-LBD / SRC1(2) peptide, read-out: mean pIC50 (converted)
# T1 construct: His6 with thrombin site) (N); made in house; host or cells: E. coli BL21(DE3), modified pET21a vector
# T1 sequence (P51449 263-518): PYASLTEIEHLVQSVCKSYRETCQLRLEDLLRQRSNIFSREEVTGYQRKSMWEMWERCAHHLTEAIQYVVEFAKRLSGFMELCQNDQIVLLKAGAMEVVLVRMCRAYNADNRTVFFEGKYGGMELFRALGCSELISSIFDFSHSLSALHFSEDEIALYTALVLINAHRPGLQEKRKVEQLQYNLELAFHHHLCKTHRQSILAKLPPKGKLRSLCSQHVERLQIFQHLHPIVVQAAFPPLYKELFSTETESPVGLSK
# Text: Dual Fluorescence Energy Transfer (FRET) Assay
# This assay is based on the knowledge that nuclear receptors interact with cofactors (transcription factors) in a ligand dependent manner. RORγ is a typical nuclear receptor in that it has an AF2 domain in the ligand binding domain (LBD) which interacts with co-activators.
# This assay measures ligand-mediated interaction of the co-activator peptide with the purified bacterial-expressed RORγ ligand binding domain (RORγ-LBD) to indirectly assess ligand binding. RORγ has a basal level of interaction with the co-activator SRC1(2) in the absence of ligand, thus, it is possible to find ligands that inhibit or enhance the RORγ/SRC1(2) interaction.
# Human RORγ Ligand Binding Domain (RORγ-LBD) was expressed in E. coli strain BL21(DE3) as an amino-terminal polyhistidine tagged fusion protein. DNA encoding this recombinant protein was sub-cloned into a modified pET21a expression vector (Novagen).
# Approximately 50 g E. coli cell pellet was resuspended in 300 mL of lysis buffer (30 mM imidazole pH 7.0 and 150 mM NaCl). Cells were lysed by sonication and cell debris was removed by centrifugation for 30 minutes at 20,000 g at 4° C. […] The clarified lysate was loaded onto a column (XK-26) packed with ProBond Nickel Chelating resin (InVitrogen), pre-equilibrated with 30 mM imidazole pH 7.0 and 150 mM NaCl. After washing to baseline absorbance with the equilibration buffer, the column was developed with a gradient from 30 to 500 mM imidazole pH 7.0. Column fractions containing the RORγ-LBD protein were pooled and concentrated to a volume of 5 mLs. The concentrated protein was loaded onto a Superdex 200 column pre-equilibrated with 20 mM Tris-Cl pH 7.2 and 200 mM NaCl. The fractions containing the desired RORγ-LBD protein were pooled together.
# Purified RORγ-LBD was buffer exchanged by exhaustive dialysis [3 changes of at least 20 volumes (>8000×)] against PBS [100 mM NaPhosphate, pH 8 and 150 mM NaCl]. […] The modified RORγ-LBD was dialyzed against 2 buffer changes—TBS pH 8.0 containing 5 mM DTT, 2 mM EDTA and 2% sucrose—each at least 20 times of the volume. The modified protein was distributed into aliquots, frozen on dry ice and stored at −80° C. The biotinylated RORγ-LBD was subjected to mass spectrometric analysis to reveal the extent of modification by the biotinylation reagent.
# Biotinylated SRC1(2) solution was prepared by adding an appropriate amount of biotinylated SRC1(2) from the 100 uM stock solution to a buffer containing 10 mM of freshly added DTT from solid to give a final concentration of 40 nM. An appropriate amount of Europium labeled Streptavidin was then added to the biotinylated SRC1(2) solution in a tube to give a final concentration of 10 nM. The tube was inverted gently and incubated for 15 minutes at room temperature. Twenty-fold excess biotin from the 10 mM stock solution was added and the tube was inverted gently and incubated for 10 minutes at room temperature.
# Biotinylated RORγ-LBD solution was prepared by adding an appropriate amount of biotinylated RORγ-LBD from the stock solution to a buffer containing 10 mM of freshly added DTT from solid to give a final concentration of 40 nM. An appropriate amount of APC labeled Streptavidin was then added to the biotinylated RORγ-LBD solution in a tube to give a final concentration of 20 nM. The tube was inverted gently and incubated for 15 minutes at room temperature. Twenty-fold excess biotin from the 10 mM stock solution was then added and the tube was inverted gently and incubated for 10 minutes at room temperature.
# The reaction mixtures were incubated for 5 minutes. […] The plates were incubated for 1 hour and then read on ViewLux in Lance mode for EU/APC.
# IL-17F mRNA expression = experiment: Ex-vivo human skin model, IL-17F mRNA expression; format: cell-based; conditions: for Percentage of inhibition of IL-17F mRNA expression: Th17 cytokine cocktail 24 h, RT-PCR
# Protocol: as §1, §2, §3, §4
# IL-17A mRNA expression = experiment: Ex-vivo human skin model, IL-17A mRNA expression; format: cell-based; conditions: for Percentage of inhibition of IL-17A mRNA expression: Th17 cytokine cocktail 24 h, RT-PCR
# Protocol: as §1, §2, §3, §4
# [2] = system: IL-17A secreted from antiCD3/CD28 stimulated Peripheral Blood Mononuclear cells (PBMC); experiment: Peripheral Blood Mononucleocyte Cell Assay (PBMC Assay - IL-17); format: cell-based; conditions: Homo sapiens, 48 h, IL-17A release, read-out: mean pIC50 (converted)
# Protocol: Peripheral Blood Mononucleocvte Cell Assay (PBMC Assay—IL-17) […]
# This assay is designed to measure levels of IL-17A secreted from antiCD3/CD28 stimulated frozen Peripheral Blood Mononuclear cells (PBMC) isolated from human blood with the aim of identifying inhibitors of IL-17A release.
# 2. The compounds for screening are dispensed into a master plate at 10 mM top concentration which are serially diluted 1:3 across 11 points in DMSO, then 500 nL is transferred into a 384-well flat-bottomed Greiner plate to which 50 uL of cell suspension is added: for the single shot screening the highest concentration of compound is 10^−5M; for 11 point full curve dose response studies the highest concentration is 10^−4 M.
# As a low control, DMSO (as supplied, for example, by VWR) (final concentration 1%) in column 6 (16 points).
# As a high control, 5-(4-fluorophenyl)-2-ureidothiophene-3-carboxamide (obtainable from, for example, Sigma) at a final concentration of 10^−4 M in DMSO should be used in column 18 (16 points).
# 9. Make the cell suspension at the concentration 8×10^5 cells/mL to give a final number of 40,000 cells/well.
# 1. Add well mixed CD3/CD28 Dynabeads (as supplied, for example, by Dynal) to achieve ratio bead:cell=2:1 (ie. a dilution of 1 in 20). Mix thoroughly.
# 2. Dispense the suspension into the 384 Assay Plates using Multidrop (50 uL per well). If the volume of cell suspension is large, mix the suspension after dispensing into every other plate.
# 3. Cover the plates with the lids and place them to the humidified incubator (37° C., 5% CO2) for 48 hours.
# 1. Transfer 10 uL of supernatants from assay plates to the MSD plates using Cybiwell. Ensure that all wells are covered with the solution. Tap the plate gently, if some of the wells are not covered with the supernatant.
# 3. Add 10 uL of MSD IL-17 detecting antibody using multidrop (1 ug/mL in D-PBS without Ca^2+ and Mg^2+ (supplied, for example, by Gibco)).
# 4. Cover the plates with adhesive foil and incubated with shaking for 3 hours at room temperature
# 7. Add 35 uL of MSD Read Buffer T×2 using multidrop.
# 8. Read plates on MSD MA6000 reader using the 384 well plate protocol as per manufacturer's instructions.
# [3] = four different donors, compound 10 μM
smiles,measurement,setting,value
"CCc1ccc(N(CC(C)C)S(=O)(=O)c2ccc(C(O)CN3CCOCC3)c(CO)c2)cc1 (racemic) [Example E123, N-(4-ethylphenyl)-4-(1-hydroxy-2-morpholinoethyl)-3-(hydroxymethyl)-N-isobutylbenzenesulfonamide]",Percentage of inhibition of IL-22 mRNA expression,"IL-22 mRNA expression; Skin Donor 1, compound 10 μM",63% *
same,Percentage of inhibition of IL-22 mRNA expression,"IL-22 mRNA expression; Skin Donor 2, compound 10 μM",57%
same,Percentage of inhibition of IL-22 mRNA expression,"IL-22 mRNA expression; Skin Donor 3, compound 10 μM",50%
same,Percentage of inhibition of IL-22 mRNA expression,"IL-22 mRNA expression; Skin Donor 4, compound 10 μM",68% *
same,IC50,[1],31.6 nM
same,Percentage of inhibition of IL-17F mRNA expression,"IL-17F mRNA expression; Skin Donor 1, compound 10 μM",55% *
same,Percentage of inhibition of IL-17F mRNA expression,"IL-17F mRNA expression; Skin Donor 2, compound 10 μM",84% *
same,Percentage of inhibition of IL-17F mRNA expression,"IL-17F mRNA expression; Skin Donor 3, compound 10 μM",65% *
same,Percentage of inhibition of IL-17F mRNA expression,"IL-17F mRNA expression; Skin Donor 4, compound 10 μM",87% *
same,Percentage of inhibition of IL-17A mRNA expression,"IL-17A mRNA expression; Skin Donor 1, compound 10 μM",76% *
same,Percentage of inhibition of IL-17A mRNA expression,"IL-17A mRNA expression; Skin Donor 2, compound 10 μM",92% *
same,Percentage of inhibition of IL-17A mRNA expression,"IL-17A mRNA expression; Skin Donor 3, compound 10 μM",73% *
same,Percentage of inhibition of IL-17A mRNA expression,"IL-17A mRNA expression; Skin Donor 4, compound 10 μM",91% *
Cc1ccc(N(CC(C)C)S(=O)(=O)c2ccc(OCC3CCOCC3)cc2)c(C)c1 [Example E12],IC50,[1],≤ 15.8 nM
same,IC50,[2],< 1000 nM
Cc1ccc(N(CC(C)C)S(=O)(=O)c2ccc(OCC3CCOCC3)c(Cl)c2)c(C)c1 [Example E20],IC50,[1],≤ 15.8 nM
"Cc1ccc(N(CC(C)C)S(=O)(=O)c2ccc(OCC3CCOCC3)c(C3CC3)c2)c(C)c1 [Example E21, 3-cyclopropyl-N-(2,4-dimethylphenyl)-N-isobutyl-4-((tetrahydro-2H-pyran-4-yl)methoxy)benzenesulfonamide]",IC50,[1],≤ 15.8 nM
same,IC50,[2],< 1000 nM
Cc1ccc(N(CC(C)C)S(=O)(=O)c2cc(F)c(OCC3CCOCC3)c(F)c2)c(C)c1 [Example E23],IC50,[1],≤ 15.8 nM
Cc1ccc(N(CC(C)C)S(=O)(=O)c2ccc(OCC3CCOCC3)c(C)c2)c(C)c1 [Example E24],IC50,[1],≤ 15.8 nM
Cc1ccc(N(CC(C)C)S(=O)(=O)c2ccc(OCC3CCOCC3)cc2C)c(C)c1 [Example E25],IC50,[1],≤ 15.8 nM
"Cc1ccc(N(CC(C)C)S(=O)(=O)c2ccc(OCC3CCOCC3)cc2O)c(C)c1 [Example E26, N-(2,4-dimethylphenyl)-2-hydroxy-N-isobutyl-4-((tetrahydro-2H-pyran-4-yl)methoxy)benzenesulfonamide]",IC50,[1],≤ 15.8 nM
"CCc1ccc(N(CC(C)C)S(=O)(=O)c2ccc(OCC3CCOCC3)c(CO)c2)cc1 [Example E124, N-(4-ethylphenyl)-3-(hydroxymethyl)-N-isobutyl-4-((tetrahydro-2H-pyran-4-yl)methoxy)benzenesulfonamide]",gene transcription of il22 (result in words),IL-22 mRNA expression; [3],inhibited
same,gene transcription of il17f (result in words),IL-17F mRNA expression; [3],inhibited
same,gene transcription of il17a (result in words),IL-17A mRNA expression; [3],inhibited
